Marks after values point to notes of the source that are not given here.
Experiments:
[1] = In vivo test: nitrate content in the blood of mice after single gastric gavage; settings: 2 mmol/kg sodium nitrate, once
Method: Blood was collected from vena caudalis at 0 h, and 2, 4, 6, 12, and 24 h after gastric gavage, respectively.

NOD/Itj mice [2] = assay: Salivary flow rate of NOD/Itj mice (animal model of SS); assay type: in vivo; settings: for effect on salivary flow rate of NOD/Itj mice (in words): gastric gavage; for Salivary flow rate (mean value ± SD): NOD/Itj mice, gastric gavage from 8th week, microcapsules 0.4 mmol/kg NO3−, NaNO3 0.4 mmol/kg, Vc 2 mmol/kg
Method: Therefore, the NOD/Itj mouse can be used as an animal model of SS. Subsequently, the microcapsules of the present invention were administered by gastric gavage, the saliva flow rate was monitored, and the experimental samples were collected at the 12th week to observe the prophylactic and therapeutic effects of the microcapsules of the present invention on SS.
After proper anaesthesia, the mice were injected I.P. with pilocarpine nitrate in aseptic normal saline at a concentration of 0.4 mg/ml and a dosage of 0.5 mg/100 g b.w. After the injection, the mice were laid on a 20° inclined mouse board on prone position, with the head slightly inclined downward, so that the head was in a slightly lower position. About 5 minutes after the injection, after the first drop of saliva from the mouth of the mouse, after 5 minutes, the time was recorded and the saliva was collected, and the amount of saliva was collected for 20 minutes (the amount of saliva is detected by inserting a small sterile cotton ball with known weight under the tongue of mouse, and weighing cotton ball 20 minutes later).
(§1) Saliva flow rate was measured […].

NOD/Itj mice [3] = assay: Lymphocyte infiltration in submandibular gland of NOD/Itj mice (HE staining, Image J); assay type: in vivo; settings: 14th week, gastric gavage from 8th week, microcapsules 0.4 mmol/kg NO3−, NaNO3 0.4 mmol/kg, Vc 2 mmol/kg
Method: The salivary flow rate was measured every two weeks from the 8th week after birth, and the saliva was collected. At the same time, the submandibular gland samples were collected and stained with HE for histological observation, and the degree of lymphocyte infiltration was analyzed by Image J.
After the experimental animals were sacrificed, they were placed on supine position, disinfected, and the neck was incised to dissect the submandibular gland completely. The tissues were washed with PBS, cut into 0.2 cmx 0.2 cm, and fixed in 4% paraformaldehyde (pH 7.2) at 4° C. for 24-48 h. After dehydration, wax impregnation and embedding, the tissues were sectioned at a thickness of 4 μm and baked, followed by hematoxylin and eosin (HE) staining. The remaining fresh samples were placed in a refrigerator at −80° C.
as §1

[4] = after oral administration; cited from earlier work

Structure (SMILES) | Nitrate content in the blood of the mice after single administration ([1]; 0 h) | Nitrate content in the blood of the mice after single administration ([1]; 2 h) | Nitrate content in the blood of the mice after single administration ([1]; 4 h) | Nitrate content in the blood of the mice after single administration ([1]; 6 h) | Nitrate content in the blood of the mice after single administration ([1]; 12 h) | Nitrate content in the blood of the mice after single administration ([1]; 24 h) | effect on salivary flow rate of NOD/Itj mice (in words) (NOD/Itj mice [2]) | Salivary flow rate (mean value ± SD) (NOD/Itj mice [2]; week 8) | Salivary flow rate (mean value ± SD) (NOD/Itj mice [2]; week 9) | Salivary flow rate (mean value ± SD) (NOD/Itj mice [2]; week 10) | Salivary flow rate (mean value ± SD) (NOD/Itj mice [2]; week 11) | Salivary flow rate (mean value ± SD) (NOD/Itj mice [2]; week 12) | Salivary flow rate (mean value ± SD) (NOD/Itj mice [2]; week 13) | Salivary flow rate (mean value ± SD) (NOD/Itj mice [2]; week 14) | Infiltration area of the submandibular gland (NOD/Itj mice [3]) | half-life in vivo [4]
O=[N+]([O-])[O-].[Na+] [NaNO3, sodium nitrate] | 41.8 µmol/L | 1052.8 µmol/L | 572.4 µmol/L | 297.4 µmol/L | 45.3 µmol/L | 32.7 µmol/L | no obvious influence | 0.078 ± 0.011 g/10 min | 0.068 ± 0.006 g/10 min | 0.060 ± 0.004 g/10 min | 0.057 ± 0.004 g/10 min | 0.061 ± 0.009 g/10 min | 0.062 ± 0.007 g/10 min | 0.059 ± 0.009 g/10 min | 4.42 ± 0.54^b % | 
O=C1O[C@H]([C@@H](O)CO)C(O)=C1O [Vc, vitamin C] |  |  |  |  |  |  | no obvious influence | 0.077 ± 0.012 g/10 min | 0.063 ± 0.008 g/10 min | 0.049 ± 0.007 g/10 min | 0.041 ± 0.008 g/10 min | 0.038 ± 0.006 g/10 min | 0.035 ± 0.008 g/10 min | 0.034 ± 0.007 g/10 min | 5.16 ± 0.58% | 2 h
